Experimental data from ChEMBL document CHEMBL4385619, “Identification of topoisomerases as molecular targets of cytosporolide C and its analog” (Bioorg Med Chem, 2019).
Activity calls are given as the source filed them. No cut-off for these calls is given here.

Legend:
[1] = molecular target: DNA topoisomerase 2-alpha (Homo sapiens) (UniProt P11388); experiment: Inhibition of human DNA topoisomerase 2 mediated decatenation at 10 uM using kDNA as substrate after 30 mins by ethidium bromide staining-based agarose gel electrophoresis method
A549 = experiment: Antiproliferative activity against human A549 cells assessed as reduction in cell viability measured after 72 hrs by MTT assay; type: functional, cell-based; details: A549, 72 h
HCT-116 = experiment: Antiproliferative activity against human HCT116 cells assessed as reduction in cell viability measured after 72 hrs by MTT assay; type: functional, cell-based; details: HCT-116, 72 h
MCF7 = experiment: Antiproliferative activity against human MCF7 cells assessed as reduction in cell viability measured after 72 hrs by MTT assay; type: functional, cell-based; details: MCF7, 72 h
[2] = molecular target: T1, DNA topoisomerase 1 (Escherichia coli (strain K12)) (UniProt P06612); experiment: Inhibition of Escherichia coli topoisomerase 1 mediated DNA relaxation at 10 uM using plasmid pMT-puro DNA as substrate after 30 mins by ethidium bromide staining-based agarose gel electrophoresis method
T1 sequence (whole entry): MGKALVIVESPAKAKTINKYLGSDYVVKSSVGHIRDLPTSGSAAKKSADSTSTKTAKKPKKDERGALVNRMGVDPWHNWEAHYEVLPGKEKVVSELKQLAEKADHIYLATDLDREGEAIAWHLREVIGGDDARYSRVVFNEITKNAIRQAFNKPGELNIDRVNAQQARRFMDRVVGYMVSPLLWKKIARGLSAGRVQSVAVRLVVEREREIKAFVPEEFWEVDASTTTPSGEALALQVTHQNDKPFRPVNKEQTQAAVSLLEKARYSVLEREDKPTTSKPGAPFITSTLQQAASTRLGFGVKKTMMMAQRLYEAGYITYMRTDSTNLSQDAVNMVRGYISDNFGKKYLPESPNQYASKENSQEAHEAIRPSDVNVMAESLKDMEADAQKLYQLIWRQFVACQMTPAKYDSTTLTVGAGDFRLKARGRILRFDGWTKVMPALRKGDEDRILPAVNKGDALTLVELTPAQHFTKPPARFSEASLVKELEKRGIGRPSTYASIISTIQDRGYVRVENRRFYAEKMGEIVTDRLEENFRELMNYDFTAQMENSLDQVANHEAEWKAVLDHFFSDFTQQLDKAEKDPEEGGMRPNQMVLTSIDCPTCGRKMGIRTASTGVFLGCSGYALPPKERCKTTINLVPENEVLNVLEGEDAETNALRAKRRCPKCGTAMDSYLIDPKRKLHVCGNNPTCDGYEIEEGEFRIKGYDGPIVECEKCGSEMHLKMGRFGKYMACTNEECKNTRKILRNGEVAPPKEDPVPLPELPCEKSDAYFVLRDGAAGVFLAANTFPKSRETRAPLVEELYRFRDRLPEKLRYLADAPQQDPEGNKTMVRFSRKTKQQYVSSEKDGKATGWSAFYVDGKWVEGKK

[3] = molecular target: T1, DNA topoisomerase 1 (Escherichia coli (strain K12)); experiment: Inhibition of Escherichia coli topoisomerase 1 mediated DNA relaxation at 1 uM using plasmid pMT-puro DNA as substrate after 30 mins by ethidium bromide staining-based agarose gel electrophoresis method
[4] = molecular target: T1, DNA topoisomerase 1 (Escherichia coli (strain K12)); experiment: Inhibition of Escherichia coli topoisomerase 1 mediated DNA relaxation using plasmid pMT-puro DNA as substrate after 30 mins by ethidium bromide staining-based agarose gel electrophoresis method

DNA topoisomerase 2-alpha (Homo sapiens), sequence (P11388 whole entry): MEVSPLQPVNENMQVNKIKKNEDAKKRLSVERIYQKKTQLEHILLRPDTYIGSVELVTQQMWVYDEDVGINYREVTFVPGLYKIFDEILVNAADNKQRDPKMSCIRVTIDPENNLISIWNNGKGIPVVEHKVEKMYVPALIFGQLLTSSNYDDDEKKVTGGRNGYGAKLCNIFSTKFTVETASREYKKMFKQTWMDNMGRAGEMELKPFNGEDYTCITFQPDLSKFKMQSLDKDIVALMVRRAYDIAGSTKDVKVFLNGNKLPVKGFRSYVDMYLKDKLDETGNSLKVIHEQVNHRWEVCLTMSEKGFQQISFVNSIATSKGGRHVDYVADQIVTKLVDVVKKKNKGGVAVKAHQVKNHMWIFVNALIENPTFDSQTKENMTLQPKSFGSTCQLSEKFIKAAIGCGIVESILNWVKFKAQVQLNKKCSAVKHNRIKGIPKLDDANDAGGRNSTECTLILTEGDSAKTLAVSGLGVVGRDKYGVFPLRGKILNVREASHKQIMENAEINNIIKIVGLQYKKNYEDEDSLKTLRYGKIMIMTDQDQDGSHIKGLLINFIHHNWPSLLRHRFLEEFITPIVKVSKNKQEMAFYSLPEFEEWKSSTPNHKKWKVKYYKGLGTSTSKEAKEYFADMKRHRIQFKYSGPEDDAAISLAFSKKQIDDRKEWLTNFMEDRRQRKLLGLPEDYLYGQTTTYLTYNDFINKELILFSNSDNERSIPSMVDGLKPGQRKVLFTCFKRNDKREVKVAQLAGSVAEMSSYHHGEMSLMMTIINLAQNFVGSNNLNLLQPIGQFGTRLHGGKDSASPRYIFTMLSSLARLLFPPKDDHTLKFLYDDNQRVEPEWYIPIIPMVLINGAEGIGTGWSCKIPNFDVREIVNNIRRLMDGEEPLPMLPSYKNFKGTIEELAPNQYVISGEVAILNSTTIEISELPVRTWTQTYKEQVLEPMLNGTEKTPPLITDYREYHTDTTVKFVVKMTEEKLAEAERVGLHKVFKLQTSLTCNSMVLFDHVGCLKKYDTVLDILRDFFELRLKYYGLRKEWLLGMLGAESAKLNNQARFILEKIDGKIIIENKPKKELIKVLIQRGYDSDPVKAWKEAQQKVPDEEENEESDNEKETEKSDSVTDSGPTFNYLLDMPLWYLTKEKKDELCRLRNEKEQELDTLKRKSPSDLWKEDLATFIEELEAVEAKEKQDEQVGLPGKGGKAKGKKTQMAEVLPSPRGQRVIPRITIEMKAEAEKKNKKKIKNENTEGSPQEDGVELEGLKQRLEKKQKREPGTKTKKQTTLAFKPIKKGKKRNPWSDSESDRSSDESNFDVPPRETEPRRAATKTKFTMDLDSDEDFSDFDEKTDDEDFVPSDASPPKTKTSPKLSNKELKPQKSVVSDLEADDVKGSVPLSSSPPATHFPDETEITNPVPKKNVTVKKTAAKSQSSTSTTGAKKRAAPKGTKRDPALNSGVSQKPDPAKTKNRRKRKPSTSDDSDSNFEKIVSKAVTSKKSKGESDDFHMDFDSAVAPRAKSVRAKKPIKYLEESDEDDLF

| Structure (SMILES) | inhibition [1] | IC50 (A549) [µM] | IC50 (HCT-116) [µM] | IC50 (MCF7) [µM] | inhibition [2] | inhibition [3] | inhibition [4] |
| --- | --- | --- | --- | --- | --- | --- | --- |
| C[C@H]([C@H](C)N1CC(=O)NC(=O)C1)N1CC(=O)NC(=O)C1 | Active |  |  |  |  |  |  |
| CO[C@@H]1/C=C(\C)C[C@H](OC(C)=O)[C@]2(O)[C@H](CC2(C)C)/C(COC(C)=O)=C\1 | inactive | > 10 | > 10 | > 10 | inactive |  |  |
| CCCCCCC[C@@H]1Cc2cc(O)c(C(=O)O)c3c2[C@H](O1)[C@H]1[C@@H](OC)/C=C(/COC(C)=O)[C@H]2CC(C)(C)[C@]2(O)[C@@H](O)C[C@]1(C)O3 | inactive | 6.31 | 5.98 | 8.88 | Active |  |  |
| CO[C@@H]1/C=C(\C)C[C@H](O)[C@]2(O)[C@H](CC2(C)C)/C(CO)=C\1 | inactive | > 10 | > 10 | > 10 | inactive |  |  |
| CC[C@@]1(O)C(=O)OCc2c1cc1n(c2=O)Cc2cc3ccccc3nc2-1 |  |  |  |  |  | Active |  |
| C=C1CC[C@@H]2[C@H]3O[C@H](CCCCCCC)Cc4cc(O)c(C(=O)O)c(c43)O[C@@]2(C)CC[C@@H]2[C@@H]1CC2(C)C | Active | 5.01 | 3.91 | 7.28 | Active |  | Dose-dependent effect |
| CCCCCCC[C@@H]1Cc2cc(O)c(C(=O)O)c(O)c2[C@H](O)O1 | Active | > 10 | > 10 | > 10 | inactive |  |  |
| CCCCCCC[C@@H]1Cc2cc(O)c(C(=O)O)c3c2[C@H](O1)[C@H]1[C@@H](OC)/C=C(/COC(C)=O)[C@H]2CC(C)(C)[C@]2(O)[C@@H](OC(C)=O)C[C@]1(C)O3 | inactive | > 10 | > 10 | > 10 | inactive |  |  |
| CCCCCCC[C@@H]1Cc2cc(O)c(C(=O)O)c3c2[C@H](O1)[C@H]1[C@@H](OC)/C=C(/CO)[C@H]2CC(C)(C)[C@]2(O)[C@@H](O)C[C@]1(C)O3 | inactive | > 10 | > 10 | > 10 | inactive |  |  |
